Measurements from patent US10308631B2, “Selective anti-cancer compounds” (NATIONAL UNIVERSITY OF SINGAPORE, priority 2015, dated 2019).

Tests used:
[1] = tested on: HeLa cells (mitotic spindles, β-tubulin/DAPI); assay: Immunofluorescence analysis of mitotic spindles and chromosomes; assay type: cell-based, human; details: 6 h, Compound 1 2.5 μM, CQ 15 or 25 μM
Method: HeLa cells, treated with Compound 1 (a131) at 2.5 μM (FIG. 3b), chloroquine (CQ) at 15 μM (FIG. 3c) or 25 μM (FIG. 3d), or DMSO (FIG. 3a) for 6 h, were fixed in methanol and subjected to immunofluorescence analysis using antibodies against β-tubulin to visualize proper formation of mitotic spindles. The condensed mitotic chromosomes were visualized by counterstaining with DAPI. Only Compound 1 (a131)-treated HeLa cells arrested in mitosis with misaligned chromosomes and disorganized spindles (FIG. 3b). The bars in FIGS. 3a-d represent 5 μm in length.
To confirm the inhibitory mitotic progression ability, HeLa cervical cancer cells as cultured above were treated with Compound 1 (2.5 μM, DMSO), CQ (15 or 25 μM, DMSO) or DMSO for 6 h. The treated cells were fixed in methanol and subjected to immunofluorescence analysis using antibodies against β-tubulin (Abcam, Cat#ab52623) to visualize proper formation of mitotic spindles. The condensed mitotic chromosomes were visualized by counterstaining with DAPI.

[2] = tested on: HCT-15 human colon adenocarcinoma xenografts; assay: Tumour xenograft efficacy, tumour volume; assay type: in vivo, mice; details: HCT15 xenografts; intravenously 40 mg/kg, 3 times every 4 days; vs vehicle
Method: A, B: is a graphical representation of tumour volumes estimated periodically as indicated. Mice bearing established tumour xenografts using HCT15 or MDA-MB-231 cells were treated orally (PO) or intraperitoneally (IP) twice a day with the indicated doses of Compound 1 or Compound 16 for 12 or 15 days. Paclitaxel (PTX) was given intravenously at dose of 40 mg/kg, 3 times every 4 days. Error bars show ±S.D. from mean tumour volumes obtained from 6 mice. Student's t-test was performed to determine the statistical significance (*=p<0.005). C: is a bar graph showing quantification of cells (n>100 per condition) with misaligned chromosomes and multipolar mitotic-spindles. […] tumour sections treated with Compound 16 (80 mg/kg) or control vehicle for 12 days were stained with anti-β-tubulin antibodies and DAPI. The percentage of cells with misaligned chromosomes and multipolar mitotic-spindles was quantified and plotted with mean values±S.D.
Mice bearing established tumor xenografts using HCT15 or MDA-MB-231 cells were treated orally (PO) or intraperitoneally (IP) twice a day with the indicated doses of Compound 1 or its derivative Compound 16 (b5) for 12 or 15 days, respectively. For comparison, paclitaxel (PTX) was given intravenously to mice bearing established tumour xenografts using HCT15 at dose of 40 mg/kg, 3 times every 4 days.

[3] = tested on: non-transformed normal and oncogene-transformed human fibroblast BJ cell lines; assay: Chemoprotection from paclitaxel, Annexin V/PI FACS; assay type: cell-based; details: paclitaxel treatment alone, 50 nM
Method: Normal and transformed BJ cells were treated with Compound 25 at 5 μM. 48 h after treatment, cells were further treated with (A) 50 nM paclitaxel (PTX) or (B) etoposide, at the concentrations shown, for additional 48 or 72 h, respectively. A: cells were collected, stained with Annexin V together with propidium iodide (PI) and subjected to FACS analysis. […] Student's t-test was performed to determine the statistical significance (***=P<0.0001, **=P<0.001, *=P<0.05, n.s.=no significance).
The chemoprotective efficacies of the Compounds in Group 2 were further evaluated by measuring their ability to protect non-transformed normal cells, but not cancer and oncogene-transformed counterparts, from the most well-known as well as clinically-relevant chemotherapeutic agents, paclitaxel and etoposide. To determine this, isogenic non-transformed normal and oncogene-transformed human fibroblast BJ cell lines, cultured in DMEM supplemented with 10% FBS, were pre-treated with Compound 25 (a166—Group 2) at 5 μM. 48 h after treatment, cells were further treated with paclitaxel (PTX; FIG. 13A) or etoposide (FIG. 13B) for an additional 72 h. […] For etoposide, cell viability was determined using MTT assay and plotted in comparison with DMSO control vehicle with mean values±S.D. (n=4).

SMILES | mitotic arrest, chromosome alignment and mitotic spindles [1] | anti-tumour effect (tumour volume) [2] | selectivity of cell death for oncogene-transformed BJ cells [3]
CCN(CC)CCCC(C)Nc1ccnc2cc(Cl)ccc12 (stereo not drawn) [CQ, chloroquine, reference compound] | no such effects were seen | – | –
CC(=O)O[C@H]1C(=O)[C@@]2(C)[C@H]([C@H](OC(=O)c3ccccc3)[C@]3(O)C[C@H](OC(=O)[C@H](O)[C@@H](NC(=O)c4ccccc4)c4ccccc4)C(C)=C1C3(C)C)[C@]1(OC(C)=O)CO[C@@H]1C[C@@H]2O [paclitaxel, reference compound] | – | did not show significant anti-tumour effects | showed a minimal selectivity for oncogene-transformed BJ cells
